Here are results for one compound from article PMC11580889 (bioRxiv, 2025).

The assay deals with PNKP (polynucleotide kinase 3'-phosphatase); purified recombinant PNKP (Homo sapiens, UniProt Q96T60). Briefly: intrinsic tryptophan fluorescence quenching titration. The format is binding.

On to `O=P(O)(O)OC[C@H]1O[C@@](CO)(OP(=O)(O)O)[C@@H](O)[C@@H]1O` [F2,6BP], for which the dissociation constant (Kd) amounted to 0.525 ± 0.025 µM.
